{"source": "patent US12595251B2", "about": "“Amidines and amidine analogs for the treatment of bacterial infections and potentiation antibiotics” (GEORGIA STATE UNIVERSITY RESEARCH FOUNDATION, INC., priority 2018, dated 2026)", "key": {"[1]": {"test_system": "HEK293 cells", "assay": "Cytotoxicity in HEK293 cells (CCK-8, 24 h)", "format": "cell-based", "details": "for HEK293 cytotoxicity at 100 μM (\"100 μM result in x%\"): NT=not toxic", "protocol": "(§1) H9c2 (ATCC®R-1446™) cells Were used in the studies. The H9c2 cells were maintained in DMEM (Dulbeccoa's Modified Eagle's Medium) supplemented with 10% fetal bovine serum (Mid Sci; S01520HI) and 1% penicillin-streptomycin (Sigma-Aldrich; P4333) at 37° C. with 5% CO2. The H9c2 cells were seeded in 96-well plate one day before the experiment. Different concentrations of di-amidine compounds were added into the H9c2 cells. The cells were then incubated with the compounds for 24 h at 37° C. with 5% CO2. The cell viability was tested by the CCK-8. Specifically, after 24 h incubation, 10 μL CCK-8 was added to each well. After 3 h incubation at 37° C., the absorbance at 450 nm was recorded by a plate reader. The cytoxicity in HEK293 and 3T3 cells was measured using the same procedure. Data is shown in Table 5 (NT=not toxic; --=not tested)."}, "[2]": {"test_system": "3T3 cells", "assay": "Cytotoxicity in 3T3 cells (CCK-8, 24 h)", "format": "cell-based", "protocol": "as §1"}, "[3]": {"test_system": "MRSA", "assay": "Sensitization of MRSA to erythromycin (sensitization fold from IC90)", "format": "cell-based, Staphylococcus aureus", "details": "for SF (MRSA) at 4 μM: compound at 4 μM", "protocol": "MRSA bacteria were cultured in nutrient broth at 37° C. overnight prior to treatment. […] Bacterial density was measured based on OD600."}, "[4]": {"test_system": "MRSA", "assay": "MIC of compounds against MRSA (OD600, 48 h)", "format": "cell-based", "details": "Staphylococcus aureus, MIC = 90% growth inhibition, compound alone, 48 h", "protocol": "Bacteria were then cultured with varying concentration of the compounds shown below for 48 hours, and then bacterial density was measured based on OD600. The minimum inhibitory concentration (MIC, 90% growth inhibition) was calculated for each compound, as shown in Table 4 (NA=no activity; --=not measured)."}, "[5]": {"test_system": "NDM-1 over-expressing E. coli", "assay": "microbe, parasite or virus in culture", "format": "cell-based, Escherichia coli", "details": "for Sensitization fold: MIC of antibiotic only / MIC with Compound C 5 μg/ml; for FIC / MIC of AB with Compound C (5 μg/ml): antibiotic plus Compound C 5 μg/ml"}, "[6]": {"test_system": "wild type B. subtilis", "assay": "Sensitization of B. subtilis toward antibiotics (MIC, OD600, 24 h)", "format": "cell-based, Bacillus subtilis", "details": "5.5 μg/ml Compound M-1", "protocol": "FIG. 22A is a bar graph showing that Compound M-1 sensitizes B. subtilis towards rifampicin as described in Example 13. Bacteria was cultured with rifampicin at various concentrations in the presence or absence of Compound M-1 for 24 hours at 37° C. and bacterial growth density was determined by measuring OD600. The y-axis is growth density measured in percent. The x-axis is rifampicin concentration measured in micrograms per milliliter (***: p<0.01).\nCompound M-1 can sensitize Gram-positive bacteria such as B. subtilis towards traditional antibiotics. […] The sensitization fold is 32-fold for Compound M-1 and the FIC index is 0.14."}, "[7]": {"test_system": "wild-type E. coli", "assay": "Sensitization of wild-type E. coli toward antibiotics (MIC of antibiotic with/without sensitizer)", "format": "cell-based, Escherichia coli", "details": "for MIC: Escherichia coli; for FIC: fractional inhibitory concentration, antibiotic plus Compound C 5 μg/ml", "protocol": "Bacteria were cultured with the antibiotic at various concentrations in the presence or absence of bacterial sensitizer for 24 hours at 37° C. Bacterial growth density was determined by measuring OD600 (absorbance measured at a wavelength of 600 nm). […]\nThe formula for calculating FIC is shown below: […]"}, "[8]": {"test_system": "E. coli and MRSA", "assay": "Relative ratio of E. coli and MRSA under trovafloxacin with/without Compound A-8", "format": "cell-based, Escherichia coli; Staphylococcus aureus", "details": "trovafloxacin (16 ng/ml) alone", "description": "FIG. 23A is a comparison of the relative ratio of E. coli and MRSA treated with the antibiotic trovafloxacin in the absence (pie chart on the left) and in the presence (pie chart on the right) of Compound A-8 as described in Example 14. In the absence of Compound A-8, trovafloxacin preferred to inhibit E. coli and the bacterial population was 78% MRSA. However, Compound A-8 sensitizes trovafloxacin to MRSA.\nAs a proof of concept, the relative ratio of E. coli and MRSA (FIG. 23A) or B. subtilis and MRSA (FIG. 23 B) was measured with and without Compound A-8. […] However, when trovafloxacin (8 ng/ml) is supplied with 1.5 μg/ml of Compound A-8, MRSA inhibition was achieved and E. coli was the dominant species (89% of the bacteria population)."}, "[9]": {"test_system": "H9c2 cells", "assay": "Cytotoxicity in H9c2 cells (CCK-8, 24 h)", "format": "cell-based", "protocol": "as §1"}, "[10]": {"details": "24 h, antibiotic alone, wild-type E. coli, read-out: MIC of AB only"}, "[11]": {"details": "antibiotic alone, wild-type E. coli, read-out: MIC of AB only"}, "[12]": {"details": "read-out: MIC of AB with Compound C (5 μg/ml), antibiotic plus Compound C 5 μg/ml, wild-type E. coli"}}, "note": "Several values for one entry are separate records, joined by “and”; a condition that tells them apart may be missing. Equal entries are not always repeated. Where two headings read alike, the source gives them in different places."}
{"smiles": "Cc1cc(COc2ccc(CN)cc2)cc(COc2ccc(CN)cc2)c1", "note": "[drawing 874]", "values": [{"measurement": "HEK293 CC^50", "setting": "[1]", "value": 25, "unit": "µM"}, {"measurement": "3T3 CC^50", "setting": "[2]", "value": 25, "unit": "µM"}]}
{"smiles": "CC(C)NC(=N)c1ccc(OCc2cccc(COc3ccc(C(=N)NC(C)C)cc3)c2F)cc1", "note": "[drawing 839]", "values": [{"measurement": "SF (MRSA) at 4 μM", "setting": "[3]", "value": "16-fold at 4 μM"}, {"measurement": "MIC", "setting": "[4]", "value": 12.5, "unit": "µM"}]}
{"smiles": "Cc1cc(CCc2ccc(C(=N)N)cc2)cc(CCc2ccc(C(=N)N)cc2)c1", "note": "[drawing 838]", "values": [{"measurement": "SF (MRSA) at 3 μM", "setting": "[3]; compound at 3 μM", "value": "16-fold at 3 μM"}, {"measurement": "MIC", "setting": "[4]", "value": 12, "unit": "µM"}]}
{"smiles": "CO[C@H]1/C=C/O[C@@]2(C)Oc3c(C)c(O)c4c(O)c(c(/C=N/N5CCN(C)CC5)c(O)c4c3C2=O)NC(=O)/C(C)=C\\C=C\\[C@H](C)[C@H](O)[C@@H](C)[C@@H](O)[C@@H](C)[C@H](OC(C)=O)[C@@H]1C", "note": "[Rifampicin, rifampicin]", "values": [{"measurement": "Sensitization fold", "setting": "[5]", "value": 516}, {"measurement": "FIC", "setting": "[5]", "value": 0.11}, {"measurement": "MIC of AB with Compound C (5 μg/ml)", "setting": "[5]", "value": 19, "unit": "ng/mL"}, {"measurement": "MIC of antibiotic on B. subtilis in the presence of Compound M-1", "setting": "[6]", "value": 0.037, "unit": "µg/mL"}, {"measurement": "MIC", "setting": "[7]; [10]", "value": 10, "unit": "µg/mL"}, {"measurement": "MIC", "setting": "[7]; [11]", "value": 10, "unit": "µg/mL"}, {"measurement": "MIC", "setting": "[7]; [12]", "value": 0.02, "unit": "µg/mL"}, {"measurement": "Sensitization fold", "setting": "[7]; MIC of antibiotic only / MIC of antibiotic with Compound C 5 μg/ml, wild-type E. coli", "value": "516 and 512"}, {"measurement": "FIC", "setting": "[7]; wild-type E. coli", "value": "0.11 and 0.10"}]}
{"smiles": "N=C(N)c1ccc(OCc2cc(COc3ccc(C(=N)N)cc3)cc(COc3ccc(C(=N)N)cc3)c2)cc1", "note": "[drawing 875]", "values": [{"measurement": "HEK293 cytotoxicity at 100 μM (\"100 μM result in x%\")", "setting": "[1]", "value": 100, "unit": "μM result in 10%"}]}
{"smiles": "Cc1cc(COc2ccc(C(=N)NC(C)C)cc2)cc(COc2ccc(C(=N)NC(C)C)cc2)c1", "note": "[drawing 835]", "values": [{"measurement": "SF (MRSA) at 4 μM", "setting": "[3]", "value": "32-fold at 4 μM"}, {"measurement": "MIC", "setting": "[4]", "value": 25, "unit": "µM"}]}
{"smiles": "N[C@@H]1[C@H]2CN(c3nc4c(cc3F)c(=O)c(C(=O)O)cn4-c3ccc(F)cc3F)C[C@@H]12", "note": "[Trovafloxacin, trovafloxacin]", "values": [{"measurement": "MIC", "setting": "[5]; Escherichia coli, antibiotic alone, read-out: MIC of AB only", "value": 0.025, "unit": "µg/mL"}, {"measurement": "Sensitization fold", "setting": "[5]", "value": 32}, {"measurement": "FIC", "setting": "[5]", "value": 0.13}, {"measurement": "MIC of AB with Compound C (5 μg/ml)", "setting": "[5]", "value": 0.8, "unit": "ng/mL"}, {"measurement": "MRSA share of the bacteria population (E. coli + MRSA)", "setting": "[8]", "value": 78, "unit": "%"}, {"measurement": "MIC", "setting": "[7]; [10]", "value": 0.05, "unit": "µg/mL"}, {"measurement": "MIC", "setting": "[7]; [11]", "value": 0.05, "unit": "µg/mL"}, {"measurement": "MIC", "setting": "[7]; [12]", "value": 0.0015, "unit": "µg/mL"}, {"measurement": "FIC", "setting": "[7]; wild-type E. coli", "value": 0.13}]}
{"smiles": "COc1cc(C(=N)N)ccc1OCc1cc(COc2ccc(C(=N)N)cc2OC)cc(C(C)(C)C)c1", "note": "[drawing 882]", "values": [{"measurement": "HEK293 cytotoxicity at 100 μM (\"100 μM result in x%\")", "setting": "[1]", "value": 100, "unit": "μM result in 20%"}]}
{"smiles": "Cc1cc(COc2ccc(C(=N)N)cc2)cc(COc2ccc(C(=N)N)cc2)c1", "note": "[drawing 834]", "values": [{"measurement": "SF (MRSA) at 6 μM", "setting": "[3]; compound at 6 μM", "value": "32-fold at 6 μM"}, {"measurement": "MIC", "setting": "[4]", "value": 25, "unit": "µM"}]}
{"smiles": "Cc1cc(COc2cccc(C(=N)N)c2)cc(COc2cccc(C(=N)N)c2)c1", "note": "[drawing 884]", "values": [{"measurement": "HEK293 cytotoxicity at 100 μM (\"100 μM result in x%\")", "setting": "[1]", "value": 100, "unit": "μM result in 20%"}]}
{"smiles": "N=C(N)c1ccc(OCc2cccc(COc3ccc(C(=N)N)cc3F)c2F)c(F)c1", "note": "[drawing 854]", "values": [{"measurement": "HEK293 CC^50", "setting": "[1]", "value": 100, "unit": "µM"}, {"measurement": "H9c2 CC^50", "setting": "[9]", "value": 50, "unit": "µM"}, {"measurement": "3T3 cytotoxicity at 100 μM (\"100 μM result in x%\")", "setting": "[2]; NT=not toxic", "value": 100, "unit": "μM result in 30%"}]}
